The text below walks through data of US5856510A, “5-alkenyl and 5-alkynyl indole compounds” (Allelix Biopharmaceuticals Inc., priority 1996, dated 1999).

Molecules are shown by their SMILES. Like-named read-outs stand apart in the source and are kept apart here.

This assay addresses T1, 5-HT1D-like receptor (rabbit isolated saphenous vein) (Oryctolagus cuniculus, UniProt P49144).
T1 construct: contracting the rabbit saphenous vein; from tissue; host or cells: rabbit saphenous vein rings, endothelium removed
Kind of assay: Agonist Assay: contraction of the rabbit isolated saphenous vein (5-HT1D-like receptor agonist activity). Format: cell-based, rabbit (male New Zealand White).

T1 sequence (P49144 whole entry): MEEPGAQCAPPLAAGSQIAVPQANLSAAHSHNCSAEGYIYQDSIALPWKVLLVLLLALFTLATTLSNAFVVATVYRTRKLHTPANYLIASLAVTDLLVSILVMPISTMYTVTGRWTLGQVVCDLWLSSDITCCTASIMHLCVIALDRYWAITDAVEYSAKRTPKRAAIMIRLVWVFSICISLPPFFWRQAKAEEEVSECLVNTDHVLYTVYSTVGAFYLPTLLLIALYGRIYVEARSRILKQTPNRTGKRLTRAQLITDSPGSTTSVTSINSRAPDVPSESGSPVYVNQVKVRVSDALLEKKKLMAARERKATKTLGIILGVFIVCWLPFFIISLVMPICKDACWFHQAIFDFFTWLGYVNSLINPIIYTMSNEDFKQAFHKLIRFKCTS

In general, EC50 refers to the concentration that produces a half-maximal response. In the case of `C=Cc1ccc2[nH]cc(CCN(C)C)c2c1` [Example 7a, 3-[2-(N,N-Dimethylamino)ethyl]-5-vinyl-1H-indole], the 50% effective concentration (EC50) is 0.13 µM. Regarding `C=Cc1ccc2[nH]cc(C3CCN(C)C3)c2c1` (stereo not shown) [Example 7d, 3-(N-Methylpyrrolidin-3-yl)-5-vinyl-1H-indole], the EC50 (contraction of rabbit isolated saphenous vein, concentration causing 50% of the maximum contraction effected by the compound, prazosin, idazoxan and indomethacin 1 μM each, 37° C., pH 7.4, read-out: EC50) was 0.18 µM. On to `C=Cc1ccc2[nH]cc(C[C@H]3CCCN3C)c2c1` [Example 7c, (R)-3-[(N-Methylpyrrolidin-2-yl)methyl]-5-vinyl-1H-indole], for which a half-maximal response (EC50) required 0.08 µM. With `C=Cc1ccc2[nH]cc(CCN3CCCC3)c2c1` [Example 7b, 3-[2-(N-Pyrrolidinyl)ethyl]-5-vinyl-1H-indole], the concentration giving a half-maximal response (EC50) was 5.8 µM.
